Reference: patent US10428063B2 (Bayer Pharma Aktiengesellschaft, priority 2015, dated 2019)
pIC50: −log10 of the molar value.

Biological target: catalytic domain of human Bub1 (amino acids 704-1085) (Homo sapiens (Human), UniProt O43683)
Assay: Bub1 kinase assay (TR-FRET)
Format: biochemical
Settings: 10 μM ATP, 1 μM peptide substrate, recombinant catalytic domain of human Bub1, read-out: Bub1 kinase assay median IC50
Source text: Bub1-inhibitory activities of compounds described in the present invention were quantified using a time-resolved fluorescence energy transfer (TR-FRET) kinase assay which measures phosphorylation of the synthetic peptide Biotin-Ahx-VLLPKKSFAEPG (C-terminus in amide form), purchased from e.g. Biosyntan (Berlin, Germany) by the (recombinant) catalytic domain of human Bub1 (amino acids 704-1085), expressed in Hi5 insect cells with an N-terminal His6-tag and purified by affinity- (Ni-NTA) and size exclusion chromatography.
In a typical assay 11 different concentrations of each compound (0.1 nM, 0.33 nM, 1.1 nM, 3.8 nM, 13 nM, 44 nM, 0.15 μM, 0.51 μM, 1.7 μM, 5.9 μM and 20 μM) were tested in duplicate within the same microtiter plate. To this end, 100-fold concentrated compound solutions (in DMSO) were previously prepared by serial dilution (1:3.4) of 2 mM stocks in a clear low volume 384-well source microtiter plate (Greiner Bio-One, Frickenhausen, Germany), from which 50 nl of compounds were transferred into a black low volume test microtiter plate from the same supplier. Subsequently, 2 μl of Bub1 (the final concentration of Bub1 was adjusted depending on the activity of the enzyme lot in order to be within the linear dynamic range of the assay: typically ˜200 ng/ml were used) in aqueous assay buffer [50 mM Tris/HCl pH 7.5, 10 mM magnesium chloride (MgCl2), 200 mM potassium chloride (KCl), 1.0 mM dithiothreitol (DTT), 0.1 mM sodium ortho-vanadate, 1% (v/v) glycerol, 0.01% (w/v) bovine serum albumine (BSA), 0.005% (v/v) Trition X-100 (Sigma), 1× Complete EDTA-free protease inhibitor mixture (Roche)] were added to the compounds in the test plate and the mixture was incubated for 15 min at 22° C. to allow pre-equilibration of the putative enzyme-inhibitor complexes before the start of the kinase reaction, which was initiated by the addition of 3 μl 1.67-fold concentrated solution (in assay buffer) of adenosine-tri-phosphate (ATP, 10 μM final concentration) and peptide substrate (1 μM final concentration). The resulting mixture (5 μl final volume) was incubated at 22° C. during 60 min., and the reaction was stopped by the addition of 5 μl of an aqueous EDTA-solution (50 mM EDTA, in 100 mM HEPES pH 7.5 and 0.2% (w/v) bovine serum albumin) which also contained the TR-FRET detection reagents (0.2 μM streptavidin-XL665 [Cisbio Bioassays, Codolet, France] and 1 nM anti-phosho-Serine antibody [Merck Millipore, cat. #35-002] and 0.4 nM LANCE EU-W1024 labeled anti-mouse IgG antibody [Perkin-Elmer, product no. AD0077, alternatively a Terbium-cryptate-labeled anti-mouse IgG antibody from Cisbio Bioassays can be used]). The stopped reaction mixture was further incubated 1 h at 22° C. in order to allow the formation of complexes between peptides and detection reagents. Subsequently, the amount of product was evaluated by measurement of the resonance energy transfer from the Eu-chelate-antibody complex recognizing the Phosphoserine residue to the streptavidin-XL665 bound to the biotin moiety of the peptide. To this end, the fluorescence emissions at 620 nm and 665 nm after excitation at 330-350 nm were measured in a TR-FRET plate reader, e.g. a Rubystar or Pherastar (both from BMG Labtechnologies, Offenburg, Germany) or a Viewlux (Perkin-Elmer) and the ratio of the emissions (665 nm/622 nm) was taken as indicator for the amount of phosphorylated substrate. The data were normalised using two sets of control wells for high- (=enzyme reaction without inhibitor=0%=Minimum inhibition) and low- (=all assay components without enzyme=100%=Maximum inhibition) Bub1 activity. IC50 values were calculated by fitting the normalized inhibition data to a 4-parameter logistic equation (Minimum, Maximum, IC50, Hill; Y=Max+(Min−Max)/(1+(X/IC50)Hill)).

Chain of catalytic domain of human Bub1 (amino acids 704-1085) (O43683 704-1085): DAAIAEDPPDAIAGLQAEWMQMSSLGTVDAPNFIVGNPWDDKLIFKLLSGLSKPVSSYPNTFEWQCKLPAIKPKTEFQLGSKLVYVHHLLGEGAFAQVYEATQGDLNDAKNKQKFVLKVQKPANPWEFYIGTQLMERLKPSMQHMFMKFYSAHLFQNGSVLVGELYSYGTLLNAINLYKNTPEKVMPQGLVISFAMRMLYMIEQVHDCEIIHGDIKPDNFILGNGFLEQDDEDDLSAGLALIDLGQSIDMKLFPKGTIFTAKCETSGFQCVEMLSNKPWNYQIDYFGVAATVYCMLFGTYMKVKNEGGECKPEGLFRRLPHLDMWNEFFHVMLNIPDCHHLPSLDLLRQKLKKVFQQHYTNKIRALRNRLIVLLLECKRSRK

SMILES | pIC50
CN1CCc2[nH]c(-c3ccncc3OCC(F)(F)F)c(Nc3ccccc3)c2C1=O [Example 30, 5-methyl-3-(phenylamino)-2-[3-(2,2,2-trifluoroethoxy)pyridin-4-yl]-1,5,6,7-tetrahydro-4H-pyrrolo[3,2-c]pyridin-4-one] | 7.07
COCCOc1cnccc1-c1[nH]c2c(c1Nc1ccccc1)C(=O)N(C)CC2 [Example 31, 2-[3-(2-methoxyethoxy)pyridin-4-yl]-5-methyl-3-(phenylamino)-1,5,6,7-tetrahydro-4H-pyrrolo[3,2-c]pyridin-4-one] | 8.00
CN1CCc2[nH]c(-c3ccncc3OCc3ccccc3)c(Nc3ccccc3)c2C1=O [Example 32, 2-[3-(benzyloxy)pyridin-4-yl]-5-methyl-3-(phenylamino)-1,5,6,7-tetrahydro-4H-pyrrolo[3,2-c]pyridin-4-one] | 7.38
CN1CCc2[nH]c(-c3ccncc3OCCC(F)(F)F)c(Nc3ccccc3)c2C1=O [Example 33, 5-methyl-3-(phenylamino)-2-[3-(3,3,3-trifluoropropoxy)pyridin-4-yl]-1,5,6,7-tetrahydro-4H-pyrrolo[3,2-c]pyridin-4-one] | 7.29
CN1CCc2[nH]c(-c3ccncc3OC[C@H]3CCOC3)c(Nc3ccccc3)c2C1=O [Example 34, 5-methyl-3-(phenylamino)-2-{3-[(3S)-tetrahydrofuran-3-ylmethoxy]pyridin-4-yl}-1,5,6,7-tetrahydro-4H-pyrrolo[3,2-c]pyridin-4-one] | 7.65
CN1CCc2[nH]c(-c3ccncc3OCCC(C)(C)C)c(Nc3ccccc3)c2C1=O [Example 35, 2-[3-(3,3-dimethylbutoxy)pyridin-4-yl]-5-methyl-3-(phenylamino)-1,5,6,7-tetrahydro-4H-pyrrolo[3,2-c]pyridin-4-one] | 7.07
CN1CCc2[nH]c(-c3ccnc4[nH]cnc34)c(Nc3ccccc3)c2C1=O [Example 36, 2-(3H-imidazo[4,5-b]pyridin-7-yl)-5-methyl-3-(phenylamino)-1,5,6,7-tetrahydro-4H-pyrrolo[3,2-c]pyridin-4-one] | 7.46
O=C1NCCc2[nH]c(-c3ccncc3OCC3CC3)c(Nc3ccc(F)c(F)c3)c21 [Example 37, 2-[3-(cyclopropylmethoxy)pyridin-4-yl]-3-[(3,4-difluorophenyl)amino]-1,5,6,7-tetrahydro-4H-pyrrolo[3,2-c]pyridin-4-one] | 7.22
O=C1NCCc2[nH]c(-c3ccncc3OCC3CC3)c(Nc3ccc(F)cc3)c21 [Example 38, 2-[3-(cyclopropylmethoxy)pyridin-4-yl]-3-[(4-fluorophenyl)amino]-1,5,6,7-tetrahydro-4H-pyrrolo[3,2-c]pyridin-4-one] | 7.25
O=C1NCCc2[nH]c(-c3ccncc3OCC3CC3)c(Nc3cccc(F)c3)c21 [Example 39, 2-[3-(cyclopropylmethoxy)pyridin-4-yl]-3-[(3-fluorophenyl)amino]-1,5,6,7-tetrahydro-4H-pyrrolo[3,2-c]pyridin-4-one] | 7.62
CN1CCc2[nH]c(-c3ccnc(NC(=O)[C@@H]4C[C@@H]4F)c3)c(Nc3ccccc3)c2C1=O [Example 40, (1S,2S)-2-fluoro-N-{4-[5-methyl-4-oxo-3-(phenylamino)-4,5,6,7-tetrahydro-1H-pyrrolo[3,2-c]pyridin-2-yl]pyridin-2-yl}cyclopropanecarboxamide] | 7.55
O=C1NCCc2[nH]c(-c3ccncc3OCC(F)F)c(Nc3cccc(F)c3)c21 [Example 41, 2-[3-(2,2-difluoroethoxy)pyridin-4-yl]-3-[(3-fluorophenyl)amino]-1,5,6,7-tetrahydro-4H-pyrrolo[3,2-c]pyridin-4-one] | 7.43
O=C1NCCc2[nH]c(-c3ccncc3OCC(F)F)c(Nc3ccc(F)cc3)c21 [Example 42, 2-[3-(2,2-difluoroethoxy)pyridin-4-yl]-3-[(4-fluorophenyl)amino]-1,5,6,7-tetrahydro-4H-pyrrolo[3,2-c]pyridin-4-one] | 6.95
O=C1NCCc2[nH]c(-c3ccncc3OCC(F)F)c(Nc3ccc(F)c(F)c3)c21 [Example 43, 2-[3-(2,2-difluoroethoxy)pyridin-4-yl]-3-[(3,4-difluorophenyl)amino]-1,5,6,7-tetrahydro-4H-pyrrolo[3,2-c]pyridin-4-one] | 6.87
COCCOc1cnccc1-c1[nH]c2c(c1Nc1ccc(F)c(F)c1)C(=O)NCC2 [Example 45, 3-[(3,4-difluorophenyl)amino]-2-[3-(2-methoxyethoxy)pyridin-4-yl]-1,5,6,7-tetrahydro-4H-pyrrolo[3,2-c]pyridin-4-one] | 7.55
COCCOc1cnccc1-c1[nH]c2c(c1Nc1ccc(F)cc1)C(=O)NCC2 [Example 46, 3-[(4-fluorophenyl)amino]-2-[3-(2-methoxyethoxy)pyridin-4-yl]-1,5,6,7-tetrahydro-4H-pyrrolo[3,2-c]pyridin-4-one] | 7.48
COCCOc1cnccc1-c1[nH]c2c(c1Nc1cccc(F)c1)C(=O)NCC2 [Example 47, 3-[(3-fluorophenyl)amino]-2-[3-(2-methoxyethoxy)pyridin-4-yl]-1,5,6,7-tetrahydro-4H-pyrrolo[3,2-c]pyridin-4-one] | 7.71
